Data published in patent US20240408008A1, “AN IN-SITU GELLING ENEMA OF RIFAMYCIN FOR TREATING POUCHITIS AND DISTAL ULCERATIVE COLITIS” (COSMO TECHNOLOGIES LTD., priority 2021, published 2024).
Values after ≈ are worked out from the molar mass of the structure shown.

How the values were obtained:
B. longum = assay: MIC, broth dilution; format: cell-based; details: Bifidobacterium longum, anaerobic
[1] = Rifamycin concentration in colon homogenates and plasma, HPLC/MS-MS; format: in vivo; details: rats, single enema of formulation 7639
Experimental: Briefly, rats were anesthetized and treated by enema with formulation 7639 (2 mL/rat) into the rectum by using a catheter. All rats were sacrificed by CO2 inhalation at the predetermined time points. After a single enema administration of 7639 formulation, the concentration of Rifamycin in colon homogenates and plasma was determined by HPLC/MS-MS in samples collected at various time points.

Enteroccocus faecium = assay: MIC, broth dilution; format: cell-based; details: aerobic
B. bifidum = assay: MIC, broth dilution; format: cell-based; details: Bifidobacterium bifidum, DSM20082; B. bifidum (DSM 20082); anaerobic
[2] = tested on: Faecalibacterium prausnitzii; assay: MIC, broth dilution; format: cell-based; details: anaerobic
Streptococcus pyogenes = assay: MIC, broth dilution; format: cell-based; details: ATCC700460; Streptococcus pyogenes (ATCC 700460); aerobic
C. perfringens = assay: microbe, parasite or virus in culture; format: cell-based; details: Clostridium perfringens, DSM11783
Parvimonas micra = assay: MIC, broth dilution; format: cell-based; details: DSM20468; Parvimonas micra (DSM 20468); anaerobic
Fusobacterium ulcerans = assay: MIC, broth dilution; format: cell-based; details: DSM19847; Fusobacterium ulcerans (DSM 19847); anaerobic
Eikenella corrodens = assay: MIC, broth dilution; format: cell-based; details: DSM8340; Eikenella corrodens (DSM 8340); anaerobic
Bacteroides fragilis = assay: MIC, broth dilution; format: cell-based; details: anaerobic
Veillonella parvula = assay: MIC, broth dilution; format: cell-based; details: DSM2007; Veillonella parvula DSM 2007; anaerobic
[3] = tested on: selected bacteria involved in pouchitis pathogenesis; assay: MIC, broth dilution, whole panel; format: cell-based; details: Gram-positive and Gram-negative, aerobic and anaerobic bacteria of Table 3
From the text: (§1) The Minimum Inhibitory Concentration (MIC) is defined as the lowest concentration expressed in mg/L (equivalent to μg/mL) of an antimicrobial ingredient or agent that is bacteriostatic (prevents the visible growth of bacteria). MICs are used to evaluate the antimicrobial efficacy of various compounds by measuring the effect of decreasing concentrations of antibiotic over a defined period in terms of inhibition of microbial population growth. MIC is generally regarded as the most basic laboratory measurement of the activity of an antimicrobial agent against an organism.
(§2) Antimicrobial characteristics of Rifamycin sodium salt was assessed on a panel of selected bacteria involved in pouchitis pathogenesis and a standard broth dilution method was used to determine the MIC of Rifamycin. Briefly, two-fold dilutions of the tested compounds were dispensed in 96 round bottom well plates, each dilution was processed in the liquid culture medium suitable for the tested bacterial species. Bacteria inocula were prepared by a suspension of the microbial strain in sterile water saline and adjusted to a concentration of 0.5McFarland standard corresponding to 1.5×10^8 CFU/ml. A final bacterial concentration of 0.5-1×10^5 CFU/ml was distributed in each well. […] MIC was recorded when there was visible growth in the positive growth control column (bacterial inoculum without test substance). […]

Clostridium difficile = assay: MIC, broth dilution; format: cell-based; details: Clostridioides difficile, anaerobic
From the text: as §1, §2

F. nucleatum = assay: MIC, broth dilution; format: cell-based; details: Fusobacterium nucleatum, anaerobic

## CO[C@H]1/C=C/O[C@@]2(C)Oc3c(C)c(O)c4c(O)c(cc(O)c4c3C2=O)NC(=O)/C(C)=C\C=C\[C@H](C)[C@H](O)[C@@H](C)[C@@H](O)[C@@H](C)[C@H](OC(C)=O)[C@@H]1C [Rifamycin SV]
B. longum; DSM20088, B. longum (DSM 20088)
  MIC: 0.5 µg/mL (≈ 0.717 µM)
B. longum; DSM20090, B. longum (DSM 20090)
  MIC: 0.25 µg/mL (≈ 0.358 µM)
[1]; rat, colon homogenate, other: enema into the rectum, 2 mL/rat, 6 hrs after administration
  concentration at 6 h: 123 ng/g
[1]; 30 min., 1 h, 2 h, 4 h and 6 h
  concentration in blood samples (LLOQ of the method): < 1 ng/mL
Enteroccocus faecium; Enteroccocus faecium (0808711)
  MIC: 100 µg/mL (≈ 143 µM)
Enteroccocus faecium; Enterococcus faecium, DSM17050, E. faecium (DSM 17050)
  MIC: 64 µg/mL (≈ 91.7 µM)
Enteroccocus faecium; Enterococcus faecium, DSM25697, E. faecium (DSM 25697)
  MIC: 1 µg/mL (≈ 1.43 µM)
Enteroccocus faecium; Enterococcus faecium, E. faecium (09006056)
  MIC: 100 µg/mL (≈ 143 µM)
Enteroccocus faecium; Enterococcus faecium, E. faecium (DSM13590)
  MIC: 32 µg/mL (≈ 45.9 µM)
B. bifidum
  MIC: 1 µg/mL (≈ 1.43 µM)
[2]; DSM107839, Faecalibacterium prausnitzii (DSM 107839)
  MIC: 0.06 µg/mL (≈ 0.086 µM)
[2]; Faecalibacterium prausnitzii, DSM17677, F. prausnitzii (DSM 17677)
  MIC: < 0.03 µg/mL
[2]; Faecalibacterium prausnitzii, DSM107838, F. prausnitzii (DSM 107838)
  MIC: < 0.03 µg/mL
[2]; Faecalibacterium prausnitzii, DSM107840, F. prausnitzii (DSM 107840)
  MIC: < 0.03 µg/mL
Streptococcus pyogenes
  MIC: 0.5 µg/mL (≈ 0.717 µM)
C. perfringens
  MIC: < 0.03 µg/mL
Parvimonas micra
  MIC: < 0.3 µg/mL
Fusobacterium ulcerans
  MIC: 16 µg/mL (≈ 22.9 µM)
Eikenella corrodens
  MIC: < 0.3 µg/mL
Bacteroides fragilis; Bacteroides fragilis, DSM1396, B. fragilis (DSM 1396)
  MIC: 0.39 µg/mL (≈ 0.559 µM)
Bacteroides fragilis; Bacteroides fragilis, DSM9668, B. fragilis (DSM 9668)
  MIC: 100 µg/mL (≈ 143 µM)
Bacteroides fragilis; Bacteroides fragilis, DSM9669, B. fragilis (DSM 9669)
  MIC: 100 µg/mL (≈ 143 µM)
Bacteroides fragilis; Bacteroides fragilis, DSM9670, B. fragilis (DSM 9670)
  MIC: 50 µg/mL (≈ 71.7 µM)
Bacteroides fragilis; Bacteroides fragilis, DSM9671, B. fragilis (DSM 9671)
  MIC: 50 µg/mL (≈ 71.7 µM)
Bacteroides fragilis; DSM2151, Bacteroides fragilis (DSM 2151)
  MIC: 0.78 µg/mL (≈ 1.12 µM)
Veillonella parvula
  MIC: < 0.03 µg/mL
[3]
  antimicrobial activity in vitro: powerful antimicrobial activity
Clostridium difficile; ATCC17857, C. difficile (ATCC 17857)
  MIC: 0.00011 µg/mL (≈ 0.000158 µM)
Clostridium difficile; ATCC43953, Clostridium difficile (ATCC 43953)
  MIC: 0.007 µg/mL (≈ 0.01 µM)
F. nucleatum; DSM15643, F. nucleatum (DSM 15643)
  MIC: < 0.03 µg/mL
F. nucleatum; DSM19507, F. nucleatum (DSM 19507)
  MIC: 8 µg/mL (≈ 11.5 µM)
